Bridge positions count the residues as written; N and C are the ends. Peptide text beside a SMILES is read from it.
Experiments:
[1] = molecular target: T1, AP-1 complex (Fos/Jun peptide) (Homo sapiens, UniProt P01100+P05412); test: Activities on AP-1 binding reaction to recognition sequence (ELISA) using Fos/Jun peptide; settings: read-out: Inhibition rate %
T1 construct: made in house; host or cells: chemical peptide synthesis (no expression host)
Protocol: (§1) Activities on AP-1 Binding Reaction to Recognition Sequence (ELISA)
On the other hand, Jun peptide and N-terminal biotinylated tetraglycine Fos peptide containing a DNA-binding site [Nature, Vol. 373, Pages 257-261, 1995] were synthesized and separately dissolved in tris buffer (20 mM tris-hydrochloride (pH 7.5), 50 mM potassium chloride, 1 mM ethylenediaminetetraacetic acid, 10 mM magnesium chloride, 1 mM dithiothreitol, 0.5M guanidine hydrochloride, 30% glycerol). Equimolar quantities of both the solutions were mixed together, and the mixture was used as an AP-1 complex (Fos/Jun peptide). The AP-1 complex was added to avidin-coating 96-well ELISA plate (10 pmol/well), washed, and then blocked with bovine serum albumin. The product was used for binding assay using AP-1 complex.
(§2) On the basis of the above-mentioned two coated AP-1, a digoxigenin-labeled double stranded oligonucleotide (22-mer) containing an AP-1 binding sequence ([…]) which has been synthesized elsewhere was reacted in the presence and absence of a sample at room temperature for 30-60 minutes in a binding reaction solution [Hepes buffer or 25 mM tris-hydrochloric acid (pH 7.9), 0.5 mM ethylenediaminetetraacetic acid, 0.05% Nonidet P-40, 10% glycerol]. After of the reaction, unbound labeled oligonucleotide washed out with Hepes buffer solution containing 0.05% of Tween-20. Then, an anti-digoxigenin antibody labeled with peroxidase was added, and reacted with the labeled oligonucleotide bound to AP-1. After washing out the excessive antibody with Hepes buffer containing 0.05% of Tween-20, the residue was reacted for a predetermined period of time in a 100 mM citrate buffer (pH 5.0) containing hydrogen peroxide by using o-phenylenediamine as a substrate. After adding-sulfuric acid solution to each well, absorbance (492 nm) was measured. Taking the absorbance in the absence of sample as 100%, inhibition rate of sample was calculated from the absorbance in the presence of sample.

[2] = test system: transcription factor AP-1 (nuclear extract protein prepared from HeLa cells); test: Activities on AP-1 binding reaction to recognition sequence (ELISA) using nuclear extract protein; settings: 100 μM; ELISA using nucleus-extracted protein
Protocol: as §1
Nuclear extract protein containing transcription factor AP-1 prepared from HeLa cells was coated on 96-well ELISA plate (100 ng/well) in Hepes buffer (20 mM Hepes-potassium hydroxide (pH 7.9), 0,5 mM ethylenediamine-tetraacetic acid, 50 mM potassium chloride, 10% glycerol). After washing, a blocking treatment was carried out with bovine serum albumin, and then used for a binding assay using nuclear extract protein.
as §2

T1 sequence (P01100 137-200 limits assumed): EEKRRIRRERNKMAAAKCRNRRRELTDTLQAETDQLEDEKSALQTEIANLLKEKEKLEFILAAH
T1 sequence (P05412 252-315 limits assumed): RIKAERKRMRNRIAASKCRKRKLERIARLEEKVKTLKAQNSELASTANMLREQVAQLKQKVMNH

Compound | inhibition at 200 µM [1] | inhibition at 500 µM [1] | Inhibition rate [2]
CC(C)COc1ccc(C(=O)c2ccc(OCC(C)C)c(C(=O)O)c2)c(OCC(C)C)c1 [Example 8, 5-(2,4-diisobutoxybenzoyl)-2-isobutoxybenzoic acid] | 9% | 20% | 
CC(=O)NC1CSSCC(C(N)=O)NC(=O)CNC(=O)C(CC(=O)O)NC(=O)C(C)NC(=O)C(CC(C)C)NC(=O)C(CO)NC(=O)C(CC(C)C)NC(=O)C(CCC(N)=O)NC(=O)CNC1=O (stereo not drawn) [3(5), Ac-Cys^1-Gly-Gln-Leu-Ser-Leu-Ala-Asp-Gly-Cys^10-NH2 (Cys^1-Cys^10)] (Ac-CGQLSLADGC-NH2; disulfide 1-10; configuration not given here) |  |  | 43%
CC(C)COc1ccc(C(=O)c2ccc3c(c2)cc(C(=O)O)n3CC(C)C)c(OCC(C)C)c1 [Example 82, 5-(2,4-diisobutoxybenzoyl)-1-isobutyl-1H-indole-2-carboxylic acid] | 28% | 97% | 
CC(C)COc1ccc(C(O)c2ccc(OCC(C)C)c(C=CC(=O)O)c2)c(OCC(C)C)c1 (stereo not shown) [Example 14, 3-[5-[(2,4-diisobutoxyphenyl)(hydroxy)methyl]-2-isobutoxyphenyl]-2-propenoic acid] | 21% | 90% | 
CC(C)COc1ccc(C(=O)c2ccc(OCC(C)C)c(/C=C/C(=O)O)c2)c(OCC(C)C)c1 [Example 13, 3-[5-(2,4-diisobutoxybenzoyl)-2-isobutoxyphenyl]-2-propenoic acid] | 43% | 96% | 
CC(C)COc1cc(OCC(C)C)cc(C(=O)c2ccc(OCC(C)C)c(CCC(=O)O)c2)c1 [Example 41, 3-[5-(3,5-diisobutoxybenzoyl)-2-isobutoxyphenyl]propanoic acid] | 27% | 78% | 
CC(C)COc1ccc(C(=O)c2ccc(OCC(C)C)c(CCC(=O)O)c2)c(O)c1 [Example 38, 3-[5-(2-hydroxy-4-isobutoxybenzoyl)-2-isobutoxyphenyl]-propanoic acid] | 18% | 91% | 
CC(C)COc1ccc(C(=O)c2ccc(OCC(C)C)c(CCC(=O)NS(C)(=O)=O)c2)c(OCC(C)C)c1 [Example 58, N-{3-[5-(2,4-diisobutoxybenzoyl)-2-isobutoxyphenyl]propanoyl}methanesulfonamide] | 22% | 88% | 
CC(=O)NC1CSSCC(C(N)=O)NC(=O)CNC(=O)C(CC(N)=O)NC(=O)C(C)NC(=O)C(CC(C)C)NC(=O)C(CC(=O)O)NC(=O)C(CC(C)C)NC(=O)C(CCC(N)=O)NC(=O)CNC1=O (stereo not shown) [3 (4)] (Ac-CGQLDLANGC-NH2; disulfide 1-10; configuration not given here) |  |  | 64%
CC(C)COc1ccc(C(=O)c2ccc(OCC(C)C)c(CC(=O)O)c2)c(OCC(C)C)c1 [Example 7, 2-[5-(2,4-diisobutoxybenzoyl)-2-isobutoxyphenyl]acetic acid] | 14% | 46% | 
Ac-Asn-Cys^2-Gly-Asn-Leu-Leu-Ala-Leu-Gly-Ser-Cys^11-NH2 (Cys^2-Cys^11) (GNLLALGSC; not fully specified; Ac-Asn-Cys N-term, C-amide, disulfide; printed: Gly-Asn-Leu-Leu-Ala-Leu-Gly-Ser-Cys) [3(7)] |  |  | 74%
CC(C)CCOc1ccc(C(=O)c2ccc3c(c2)n(CCC(C)C)c(=O)n3CCC(C)C)cc1CC(=O)O [Example 90, 2-[5-[(1,3-diisopentyl-2-oxo-2,3-dihydro-1H-benzimidazol-5-yl)carbonyl]-2-(isopentyloxy)phenyl]-acetic acid] | 26% | 96% | 
CC(=O)NC1CSSCC(C(N)=O)NC(=O)CNC(=O)C(CC(=O)O)NC(=O)C(C)NC(=O)C(CC(C)C)NC(=O)C(CC(=O)O)NC(=O)C(CC(C)C)NC(=O)C(CC(N)=O)NC(=O)CNC1=O (stereo not shown) [3 (6)] (Ac-CGNLDLADGC-NH2; disulfide 1-10; configuration not given here) |  |  | 42%
CC(C)COc1ccc(C(=O)c2ccc(OCC(C)C)c(OCC(=O)O)c2)c(OCC(C)C)c1 [Example 53, 2-[5-(2,4-diisobutoxybenzoyl)-2-isobutoxyphenoxy]acetic acid] | 30% | 79% | 
Ac-Cys^1-Gly-Gln-Leu-Asp-Leu-Ala-Asp-Gly-Cys^10-NH2 (Cys^1-Cys^10) (GQLDLADGC; not fully specified; N-acetyl Cys, C-amide, Cys1-Cys10 disulfide; printed: Gly-Gln-Leu-Asp-Leu-Ala-Asp-Gly-Cys) [Example 2] |  |  | 81%
CC(=O)NC1CSSCC(C(N)=O)NC(=O)CNC(=O)C(CC(C)C)NC(=O)C(C)NC(=O)C(CC(C)C)NC(=O)C(CO)NC(=O)C(CC(C)C)NC(=O)C(CCC(N)=O)NC(=O)CNC1=O (stereo not shown) [3 (2)] (Ac-CGQLSLALGC-NH2; disulfide 1-10; configuration not given here) |  |  | 94%
CC(C)COc1ccc(OCC(C)C)c(C(=O)c2ccc(OCC(C)C)c(CCC(=O)O)c2)c1 [Example 43, 3-[5-(2,5-diisobutoxybenzoyl)-2-isobutoxyphenyl]-propanoic acid] | 28% | 72% | 
CC(C)COc1ccc(Cc2ccc(OCC(C)C)c(CC(=O)O)c2)c(OCC(C)C)c1 [Example 16, 2-[5-(2,4-diisobutoxybenzyl)-2-isobutoxyphenyl]acetic acid] | 21% | 65% | 
CC(=O)NC1CSSCC(C(N)=O)NC(=O)CNC(=O)CNC(=O)C(C)NC(=O)C(CC(C)C)NC(=O)C(CC(=O)O)NC(=O)C(CC(C)C)NC(=O)C(CCC(N)=O)NC(=O)CNC1=O (stereo not drawn) [3(3), Ac-Cys^1-Gly-Gln-Leu-Asp-Leu-Ala-Gly-Gly-Cys^10-NH2 (Cys^1-Cys^10)] (Ac-CGQLDLAGGC-NH2; disulfide 1-10; configuration not given here) |  |  | 43%
CC(C)COc1ccc(C(O)c2ccc(OCC(C)C)c(CCC(=O)O)c2)c(OCC(C)C)c1 (stereo not shown) [Example 15, 3-{5-[(2,4-diisobutoxyphenyl)(hydroxy)methyl]-2-isobutoxyphenyl}propionic acid] | 19% | 64% | 
CC(C)COc1ccc(C(=O)c2ccc(OCC(C)C)c(C(=O)NCC(=O)O)c2)c(OCC(C)C)c1 [Example 57, 2-{[5-(2,4-diisobutoxybenzoyl)-2-isobutoxybenzoyl]amino}-acetic acid] | 13% | 62% | 
CC(C)COc1ccc(C(O)c2ccc(OCC(C)C)c(CC(=O)O)c2)c(OCC(C)C)c1 (stereo not shown) [Example 9, 2-{5-[(2,4-diisobutoxyphenyl)(hydroxy)methyl]-2-isobutoxyphenyl}-acetic acid] | 23% | 37% | 
CC(C)COc1ccc(C(=O)c2ccc(OCC(C)C)c(OCC(C)C)c2)cc1CCC(=O)O [Example 47, 3-[5-(3,4-diisobutoxybenzoyl)-2-isobutoxyphenyl]-propanoic acid] | 35% | 92% | 
CC(C)CCOc1ccc(C(=O)c2cc(C(=O)CC(C)C)cn2CCC(C)C)cc1CCC(=O)O [Example 88, 3-[5-{[1-isopentyl-4-(3-methylbutanoyl)-1H-pyrrol-2-yl]carbonyl}-2-(isopentyloxy)phenyl]propanoic acid] | 29% | 72% | 
CC(=O)NC1CSSCC(C(N)=O)NC(=O)C(CC(=O)O)NC(=O)CNC(=O)C(CC(C)C)NC(=O)C(C)NC(=O)C(CC(C)C)NC(=O)C(CC(C)C)NC(=O)C(CC(N)=O)NC(=O)CNC1=O (stereo not shown) [3 (10)] (Ac-CGNLLALGDC-NH2; disulfide 1-10; configuration not given here) |  |  | 76%
CC(C)CC=C1CCC2(CC1)SC[C@H](C(=O)O)N2C(=O)CCC(C)C (stereo partly drawn) [Example 4, (3S)-8-(3-methylbutylidene)-4-(4-methylpentanoyl)-1-thia-4-azaspiro[4.5]-decane-3-carboxylic acid] | 8% | 15% | 
CC(C)COc1ccc(C(NS(C)(=O)=O)c2ccc(OCC(C)C)c(CCC(=O)O)c2)c(OCC(C)C)c1 (stereo not shown) [Example 73, 3-(5-{(2,4-diisobutoxyphenyl)[(methylsulfonyl)amino]methyl}-2-isobutoxyphenyl)propanoic acid] | 18% | 74% | 

— US7314888B1, “Compounds and medicinal use thereof” (Toyama Chemical Co., Ltd., priority 1998, dated 2008)
